Assay results published in US20230317203A1, “SCREENING METHOD” (University of Leeds, priority 2022, published 2023).
Where two headings read alike, the source gives them in different places. One block for each molecule: values may come before it.

What was measured:
AMSH-LP = molecular target: T1, AMSH-LP (Homo sapiens, UniProt Q96FJ0); assay: IQF assay with JAMM/MPN DUB AMSH-LP; assay type: biochemical; settings: FIG. 1E
T1 sequence (Q96FJ0 1-436): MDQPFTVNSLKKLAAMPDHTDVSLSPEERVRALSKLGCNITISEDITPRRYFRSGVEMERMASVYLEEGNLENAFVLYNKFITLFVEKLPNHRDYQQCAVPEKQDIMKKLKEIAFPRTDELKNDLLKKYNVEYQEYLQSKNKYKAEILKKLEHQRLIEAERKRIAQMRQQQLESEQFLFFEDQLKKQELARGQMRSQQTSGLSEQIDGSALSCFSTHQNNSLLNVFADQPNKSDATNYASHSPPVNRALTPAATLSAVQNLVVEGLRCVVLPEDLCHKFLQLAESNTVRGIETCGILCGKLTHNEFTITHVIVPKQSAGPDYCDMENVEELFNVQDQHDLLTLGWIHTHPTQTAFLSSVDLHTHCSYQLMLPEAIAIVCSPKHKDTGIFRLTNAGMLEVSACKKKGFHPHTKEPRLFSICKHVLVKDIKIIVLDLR
Description: (§1) FIGS. 1A-1F show the development a high-throughput screen to identify first-in-class DUB inhibitors. FIG. 1A depicts a diagram of a TAMRA-linked IQF di-ubiquitin substrate (left) and BRISC DUB activity against a fluorescent K63-linked substrate (right).

ARISC = ARISC (Homo sapiens, UniProt P46736+Q6UWZ7+Q9NXR7); assay: IQF assay with ARISC; assay type: biochemical; settings: FIG. 1E
Description: as §1

ARISC-RAP80 = ARISC-RAP80 (Homo sapiens, UniProt P46736+Q6UWZ7+Q9NXR7); assay: IQF assay with ARISC-RAP80; assay type: biochemical; settings: FIG. 1E
Description: as §1

BRISC [1] = molecular target: T2, BRISC (Homo sapiens, UniProt P46736+Q15018+Q9NXR7); assay: Mass photometry of BRISC oligomeric state; assay type: binding; settings: purified BRISC mixed with inhibitor, FIG. 2B
Experimental: (§2) Microscope coverslips were prepared as previously described^33. All mass photometry experiments were performed using a One^MP mass photometer (Refeyn Ltd, Oxford, UK). For preliminary BRISC-inhibitor measurements, 1 μM BRISC(FL) was mixed with either DMSO or inhibitor at 330 μM and incubated for 15 minutes on ice. Prior to MP measurement, the BRISC-inhibitor mix was diluted in gel filtration buffer (25 mM HEPES, 150 mM NaCl, 1 mM TCEP) for a final concentration of BRISC at 10 nM (0.05% DMSO). 12 μL of this dilution was used for the final MP measurement, following autofocus stabilisation. […] The BRISC-inhibitor mix was used directly for MP measurement using buffer-free autofocus stabilisation. Movies were recorded for 60 seconds using AcquireMP (Refeyn, UK), and were processed using DiscoverMP (Refeyn, UK). Mass photometry image processing has been previously described^33. Briefly, contrast-to-mass (C2M) calibration was performed using protein standards (66-669 kDa) diluted in gel filtration buffer. […] The mass distribution from each run is in a histogram, where count refers to each landing event and a Gaussian sum is fitted to the data. The relative amount of each species is calculated as the area of each Gaussian, where a refers to the standard deviation of the fitted Gaussian. […] Curves were fitted and EC50 values were calculated using the GraphPad Prism (v8.0) built-in dose-response equation for concentration of agonist vs. response (variable slope).

BRISC [2] = assay: Mass photometry of BRISC oligomeric state; assay type: binding, human; settings: mass photometry
Experimental: as §2

BRISC(FL) = molecular target: T3, BRISC(FL) (Homo sapiens, UniProt P46736+Q15018+Q9NXR7); assay: Native mass spectrometry of BRISC with inhibitor; assay type: binding; settings: 10 μM BRISC(FL), 1 mM inhibitor
T3 construct: The four-subunit human BRISC (full-length (FL) and MERIT40ΔN, Abraxas2ΔC) complex was cloned; made in house; host or cells: Spodoptera frugiperda (Sf9) insect cells
Experimental: Samples were buffer exchanged into 500 mM ammonium acetate using Zeba Spin 7K MWCO desalting columns (ThermoFisher). Gold and palladium coated nanospray tips were prepared in-house and mounted on the nano-electrospray ionisation source. Mass spectra were acquired on a Q Exactive Ultra-High Mass Range Hybrid Quadrupole-Orbitrap mass spectrometer (Thermo Fisher), optimised for mass resolution at high m/z ratios. Data were visualised and processed using Mass Lynx (v4.1) and UniDec (v2.7.1).

BRISC [3] = molecular target: T2, BRISC; assay: IQF K63-linked diUb DUB activity assay, BRISC; assay type: biochemical; set-up: made in house; host or cells: Spodoptera frugiperda (Sf9) insect cells; settings: for inhibition of BRISC DUB activity: IQF assay, BRISC 1 nM
Experimental: (§3) BRISC complexes were tested for activity in DUB reaction buffer containing 50 mM HEPES-NaOH pH 7.0, 100 mM NaCl, 0.1 mg/mL BSA, 1 mM DTT, and 0.003% Brij-35. […] Inhibitors were assayed at concentrations up to 200 μM. 20 μL enzyme reactions were carried out in 384-well black flat-bottom low flange plates (Corning; 35373). DUB activity was measured using internally quenched fluorescent (IQF) K63-linked diUb (Lifesensors, catalogue number: DU6303) at 50 or 100 nM. Cleaved diUb was monitored by measuring fluorescence intensity (Ex. 540 nm, Em. 580 nm; dichroic mirror 560 nm). Fluorescence intensity was measured every minute for 30 minutes at 30° C. Fluorescence intensity units for the first 10 minutes were plotted against time to generate a linear reaction progress curve, where the initial velocity (v0) corresponds to the gradient of the curve. IC50 values were calculated using the GraphPad Prism (v8.0) built-in dose-response equation for inhibitor concentration vs. response (variable slope).
(§4) A high throughput biochemical screen was designed to identify inhibitors of BRISC, based on the ability of small molecules to inhibit BRISC cleavage of a K63-linked di-ubiquitin substrate. The di-ubiquitin substrate is designed with a fluorescent TAMRA dye on the proximal ubiquitin moiety and fluorescence quencher on the distal ubiquitin molecule (FIG. 1A). Upon isopeptidase bond cleavage, fluorescence is detected, enabling continuous fluorescent readout of deubiquitylase activity over time (FIG. 1A). The assay conditions were optimised and used to test an in-house compound library comprising of ˜300 published and custom-made kinase inhibitors. From this screen, two hits were identified, compounds AT7519 (well H20) and YM201636 (well P12) (FIG. 1B). The specificity of these compounds was assessed against the broad-spectrum DUB ubiquitin-specific protease-2 (USP2) and the serine protease trypsin which cleave K63-Ub substrate under the same conditions. […] UV-Vis spectroscopy analyses of the compound in well H20 used in the screen compared to the Synkinase and Sellechem AT7519 compounds identified an additional peak in the H20 spectra (FIG. 5C). […] The synthesis of the two isomers was confirmed using mass spectrometry fragmentation analyses (FIG. 5E) and the inhibitory effect of the isomers was tested against BRISC.

USP2 = USP2 (Homo sapiens, UniProt O75604); assay: IQF di-ubiquitin assay, USP2 specificity; assay type: biochemical; settings: USP2 100 nM, K63-Ub substrate
Description: (§5) FIGS. 5A-5E show validation of hit compounds.
as §4

Trypsin = assay: IQF di-ubiquitin assay, trypsin specificity; assay type: biochemical; settings: Trypsin 125 nM, K63-Ub substrate
Description: as §5, §4

BRISC BRCC36 Trp130Ala = BRISC BRCC36 Trp130Ala (Homo sapiens, UniProt P46736+Q15018+Q9NXR7, W130A); assay: IQF DUB assay, BRISC mutant BRCC36 Trp130Ala; assay type: biochemical; settings: FIG. 4C
Experimental: (§6) The four-subunit human BRISC (full-length (FL) and MERIT40ΔN, Abraxas2ΔC) complex was cloned using the MultiBac system and co-expressed in Spodoptera frugiperda (Sf9) insect cells^32. BRISC mutants were cloned into pFastBac vectors in the Bac-to-Bac system (ThermoFisher), baculoviruses generated in Sf9 cells and used for co-infection of Trichoplusia ni (Tni) cells. All BRISC complexes were purified as previously described^12,13.
as §3, with “20 μL enzyme reactions were carried out in 384-well black flat-bottom low flange plates (Corning; 35373).” left out, “slope). […]” for “slope).”

BRISC BRCC36 Leu169Ala = BRISC BRCC36 Leu169Ala (Homo sapiens, UniProt P46736+Q15018+Q9NXR7, L169A); assay: IQF DUB assay, BRISC mutant BRCC36 Leu169Ala; assay type: biochemical; settings: FIG. 4C
Experimental: as §6
as §3, with “20 μL enzyme reactions were carried out in 384-well black flat-bottom low flange plates (Corning; 35373).” left out, “slope). […]” for “slope).”

BRISC Abraxas2 Thr140Ala = BRISC Abraxas2 Thr140Ala (Homo sapiens, UniProt P46736+Q15018+Q9NXR7, T140A); assay: IQF DUB assay, BRISC mutant Abraxas2 Thr140Ala; assay type: biochemical; settings: FIG. 4C
Experimental: as §6
as §3, with “20 μL enzyme reactions were carried out in 384-well black flat-bottom low flange plates (Corning; 35373).” left out, “slope). […]” for “slope).”

BRISC [4] = molecular target: T2, BRISC; set-up: made in house; host or cells: Spodoptera frugiperda (Sf9) insect cells; settings: BRISC WT, reference 13; cited from earlier work

Sequence of USP2 (O75604 whole entry, species assumed): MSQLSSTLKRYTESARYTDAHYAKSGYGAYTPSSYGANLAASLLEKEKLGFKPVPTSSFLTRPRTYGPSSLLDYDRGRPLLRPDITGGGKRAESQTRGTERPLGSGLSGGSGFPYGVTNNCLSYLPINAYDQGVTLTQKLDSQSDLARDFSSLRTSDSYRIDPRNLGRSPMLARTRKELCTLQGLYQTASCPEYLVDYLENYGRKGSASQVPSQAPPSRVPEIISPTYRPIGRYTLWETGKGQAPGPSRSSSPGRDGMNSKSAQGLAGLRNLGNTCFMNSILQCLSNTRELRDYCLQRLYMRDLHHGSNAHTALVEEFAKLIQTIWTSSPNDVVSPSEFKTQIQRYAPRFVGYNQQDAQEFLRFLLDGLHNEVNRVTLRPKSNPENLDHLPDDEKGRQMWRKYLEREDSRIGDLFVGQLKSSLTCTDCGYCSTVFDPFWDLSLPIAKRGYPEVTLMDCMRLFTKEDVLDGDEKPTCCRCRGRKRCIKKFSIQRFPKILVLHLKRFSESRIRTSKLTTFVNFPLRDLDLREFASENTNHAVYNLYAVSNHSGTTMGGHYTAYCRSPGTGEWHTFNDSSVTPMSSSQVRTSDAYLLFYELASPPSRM

Molecule: O=C(NC1CCN(C(=O)c2c(Cl)cccc2Cl)CC1)c1n[nH]cc1NC(=O)c1c(Cl)cccc1Cl [AP-5-144]
- inhibition of BRISC DUB activity (BRISC [3]): no inhibition

Molecule: O=C(NC1CCNCC1)c1[nH]ncc1NC(=O)c1c(Cl)cccc1Cl [AT7519, reference compound]
- inhibition of BRISC DUB activity (BRISC [3]): neither were found to inhibit

The next lines start with results.

- inhibition of AMSH-LP (AMSH-LP): no inhibition
- specificity for BRISC over ARISC (ARISC): specifically inhibits BRISC over
- specificity for BRISC over ARISC-RAP80 (ARISC-RAP80): specifically inhibits BRISC over
- mass photometry counts, 1:1:1:1 complex (BRISC [1]): 8%
- mass photometry counts, dimer (BRISC [1]): 69%
- mass photometry counts, monomer (BRISC [1]): 14%
- IC50 (BRISC [3]; IQF K63-linked diUb substrate, FIG. 1D, read-out: IC50 inhibiting BRISC): 1500 nM
- inhibition of BRISC DUB activity (BRISC [3]): specific inhibition
Molecule: O=C(NC1CCNCC1)c1nn(C(=O)c2c(Cl)cccc2Cl)cc1NC(=O)c1c(Cl)cccc1Cl [JMS-175-2]
- dimer formation at increasing inhibitor concentration (BRISC [2]): dose-dependent increase in dimer formation
- BRISC species by native mass spectrometry (BRISC(FL)): BRISC dimers with a MW consistent with a 4:4:4:4 stoichiometry were observed

- inhibition of USP2 (USP2): inhibited
- inhibition of BRISC DUB activity (BRISC [3]): inhibited
Molecule: Nc1ccc(C(=O)Nc2cccc(-c3nc(N4CCOCC4)c4oc5ncccc5c4n3)c2)cn1 [YM201636]
- inhibition of trypsin (Trypsin): inhibited

- inhibition in the presence of SHMT2 (BRISC BRCC36 Trp130Ala): reduced inhibition
- inhibition in the presence of SHMT2 (BRISC BRCC36 Leu169Ala): reduced inhibition
- inhibition in the presence of SHMT2 (BRISC Abraxas2 Thr140Ala): reduced inhibition
B1: serine hydroxymethyltransferase (protein)
chain: QLVRMAIRAQHSNAAQTQTGEANRGWTGQESLSDSDPEMWELLQREKDRQCRGLELIASENFCSRAALEALGSCLNNKYSEGYPGKRYYGGAEVVDEIELLCQRRALEAFDLDPAQWGVNVQPYSGSPANLAVYTALLQPHDRIMGLDLPDGGHLTHGYMSDVKRISATSIFFESMPYKLNPKTGLIDYNQLALTARLFRPRLIIAGTSAYARLIDYARMREVCDEVKAHLLADMAHISGLVAAKVIPSPFKHADIVTTTTHKTLRGARSGLIFYRKGVKAVDPKTGREIPYTFEDRINFAVFPSLQGGPHNHAIAAVAVALKQACTPMFREYSLQVLKNARAMADALLERGYSLVSGGTDNHLVLVDLRPKGLDGARAERVLELVSITANKNTCPGDRSAITPGGLRLGAPALTSRQFREDDFRRVVDFIDEGVNIGLEVKSKTAKLQDFKSFLLKDSETSQRLANLRQRVEQFARAFPMPGFDEH
- inhibition of BRISC DUB activity (BRISC [4]): potent inhibitor
